# Measurements as given in patent US8686113B2 (priority 2009, dated 2014).
# Where two headings read alike, the source gives them in different places. Non-standard residues stand in square brackets, D forms with d. Residues, ends and D or L forms follow the SMILES beside them. Hyp = O=C(O)[C@@H]1C[C@@H](O)CN1; Tle = CC(C)(C)[C@H](N)C(=O)O; Orn = NCCC[C@H](N)C(=O)O
# How the values were obtained:
# E. coli BL21 A1 = format: cell-based, Escherichia coli
# Outline: (§1)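 Broth microdilution in 1% TSB with twofold peptide series, final 128 μg/mL to 62.5 ng/mL, against 5×10^6 bacteria/mL stock suspension added 1:1. Incubated 20 h at 37 °C, growth read by absorbance at 595 nm; MIC is the lowest concentration with no growth, determined in triplicate.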
# [1] = tested on: Escherichia coli DSM 10233
# Method: (§2) The minimum inhibitory concentrations (MIC) of the antimicrobial peptides and peptide derivatives were determined in microdilution assays. These used a continuous peptide dilution in sterile flat-bottomed 96-well microtiter plates (polystyrene, Greiner Bio-One GmbH, Frickenhausen, Germany) and a total volume of 100 μL per well. The aqueous peptide or peptidomimetic solutions were diluted with 1% TSB water, to obtain a final concentration of 256 μg/mL. 50 μL of the peptide or peptidomimetic solution was pipetted into the first well of each series and stirred. From this solution, 50 μL was transferred to the second well, stirred and again 50 μL was transferred to the next well, and so on. A double dilution series is obtained, beginning at 256 μg/mL in the first well to 125 ng/mL in the twelfth well. The bacteria, e.g. E. coli BL21 A1, were cultured overnight at 37° C. in nutrient broth (NB, Carl Roth GmbH+Co. KG, Karlsruhe, Germany). 50 μL of a 5×10^6 bacteria/mL suspension in 1% TSB was added to each well of the microtiter plate and thus a final concentration of the peptides or peptidomimetics from 128 μg/mL (well 1) to 62.5 ng/mL (well 12) was established in each series. The plates were incubated at 37° C. for 20 h and then the absorption was measured at 595 nm with a TECAN microtiter plate spectrophotometer (Tecan Trading AG, Mannedorf, Switzerland). The MIC values of all peptides and peptidomimetics were determined in triplicate. Sterile water was used as negative control.
# The peptides shown in Table 8 were investigated for their MIC against pathogenic bacteria such as E. coli DSM 10233, K. pneumoniae DSM 681 and P. aeruginosa DSM 3227.
# [2] = Stability against bacterial proteases in E. coli lysate; format: in vitro ADME; conditions: E. coli lysate with 0.5 mg/mL protein concentration, 37° C.
# Method: For the bacterial lysate, 500 mL of nutrient broth (Carl Roth GmbH+Co. KG, Karlsruhe) was inoculated with E. coli BL21 A1 and incubated overnight at 37° C. 2×250 mL bacterial suspension were centrifuged for 25 min at 5000 rpm and 4° C. in a Beckman Avanti™ J-20-XP centrifuge with JLA-10.500 rotor (Beckman Coulter, Fullerton, U.S.A.). The pellets were each suspended in 30 mL PBS (pH 7.4) and centrifuged again in a Beckman Allegra™ 2IR centrifuge (Beckman Coulter, Fullerton, U.S.A.). The pellets were each suspended in 10 mL PBS and were disrupted with ultrasound (Vibra-cell™ microtip, Fisher Bioblock Scientific, Illkirch, France) 2×5 min (750 W; amplitude 40%; 2 s on/3 s off) on ice. The bacterial lysates were combined and 1 mL aliquots were centrifuged at 15400 rpm for 20 min at 4° C. (Beckman Allegra™). The supernatants were removed and stored at −20° C. The protein content of the bacterial lysate was determined by protein determination according to Bradford.
# A solution of 0.15 μg/mL peptide in bacterial lysate with protein content of 1.5 mg/mL or 0.5 mg/mL was incubated at 37° C. After 0, 30, 60, 120, 240 or 360 min, 200 μL was taken from each and the proteins were precipitated with 50 μL of 15% trichloroacetic acid. Then it was incubated for 10 min at 4° C. and then centrifuged for 5 min at 13000 rpm in a Minispin desktop centrifuge. 210 μL was taken from the supernatant and neutralized with 1 mol/L sodium hydroxide solution. The intact peptide and the degradation products were analyzed by HPLC. 60 μL of 3% aqueous acetonitrile with 0.1% trifluoroacetic acid (TFA) was added to the solution and 250 μL of the mixture was injected. After chromatographic separation, the constituents were identified by MALDI-TOF-MS,
# In order to investigate the stability against bacterial proteases, a lysate was prepared from an overnight culture of E. coli BL21 A1 and the peptides were incubated in it. Using Bradford protein determination, the protein concentration was adjusted to 0.5 or 1.5 mg/mL.
# M. luteus 10240 = assay: Growth inhibition assay (microdilution MIC); format: cell-based, Micrococcus luteus; conditions: 10240, 20 h
# Outline: as §1
# [3] = mouse, serum
# Method: For this, the peptides and peptidomimetics were dissolved in water, mouse serum was added and the peptide concentration was adjusted to 75 μg/mL. While shaking continuously, the mixture was incubated at 37° C. After 0, 30, 60, 120, 240 and 360 minutes, in each case an aliquot was taken and mixed with 15% aqueous trichloroacetic acid (Carl Roth GmbH & Co. KG; Karlsruhe, Germany). After incubation on ice for a further 10 minutes, the precipitated serum proteins were centrifuged off (5 min, 13400 rpm, MiniSpin, Eppendorf AG, Hamburg, Germany). The supernatant was removed, neutralized with 1 mol/L aqueous sodium hydroxide solution (Fluke Chemie GmbH, Buchs, Switzerland) and stored at −20° C. until analysis.
# The supernatants were analyzed by RP-HPLC with a linear acetonitrile gradient (Biosolve BV, Valkenswaard, The Netherlands) in the presence of 0.1% trifluoroacetic acid (TFA, UV-grade, Fluka Chemie GmbH, Buchs, Switzerland) as ion-pairing reagent. The fractions were co-crystallized with α-cyanohydroxycinnamic acid (Bruker Daltonik GmbH; Bremen, Germany) as matrix (5.3 mg/mL in 50% acetonitrile in 0.1% aqueous TFA) and were analyzed with a tandem mass spectrometer (MALDI-TOF/TOF-MS, 4700 Proteomics Analyzer; Applied Biosystems GmbH, Weiterstadt, Germany) in the positive-ion reflector mode. The proportion of intact peptides and their degradation products or metabolites could thus be identified and quantified at the individual time points. The control used was 25% aqueous mouse serum, which was analyzed in parallel for the same time intervals.
# E. coli ATCC BAA-457 = conditions: ¼ Muller-Hinton medium
# Method: as §2
# (§3) The tests were in this case carried out in Mueller-Hinton medium (¼ concentrated), which is equivalent to 1% TSB.
# E. coli 045-849 SENTRY = conditions: 045-849 SENTRY
# Method: as §2, §3
# [4] = tested on: K. pneumoniae K6 ATCC 700603; conditions: ATCC 700603
# Method: as §2, §3
# K. pneumoniae 012-3131 = tested on: K. pneumoniae 012-3131
# Method: as §2, §3
# E. coli D31 J. Wilson = conditions: ¼ Muller-Hinton medium
# Method: as §2, §3
# K. pneumoniae ATCC 27799 = conditions: ATCC 27799
# Method: as §2, §3
structure (smiles),measurement,setting,value
CC[C@H](C)[C@H](NC(=O)[C@@H]1C[C@@H](O)CN1C(=O)[C@H](CCCNC(=N)N)NC(=O)[C@@H]1C[C@@H](O)CN1C(=O)[C@@H]1CCCN1C(=O)[C@H](CCCNC(=N)N)NC(=O)[C@@H]1CCCN1C(=O)[C@H](CCCNC(=N)N)NC(=O)[C@@H]1CCCN1C(=O)[C@H](CC(C)C)NC(=O)[C@H](Cc1ccc(O)cc1)NC(=O)[C@@H]1CCCN1C(=O)[C@@H]1CCCN1C(=O)[C@H](CCCCN)NC(=O)[C@H](CC(=O)O)NC(=O)[C@@H](N)C(C)C)C(=O)N[C@@H](Cc1ccc(O)cc1)C(=O)N[C@@H](CC(N)=O)C(=O)N[C@@H](CCCN)C(N)=O [SEQ ID NO. 108] (H-VDKPPYLPRPRP[Hyp]R[Hyp]IYN[Orn]-NH2),MIC E. coli BL21 A1,"E. coli BL21 A1; 1% TSB, 20 h at 37° C.",2 µg/mL
same,MIC E. coli DSM 10233,[1],1 to 4 µg/mL
CC[C@H](C)[C@H](NC(=O)[C@H](Cc1ccc(O)cc1)NC(=O)[C@H](CC(N)=O)NC(=O)[C@@H](N)CCCN)C(=O)N1C[C@H](O)C[C@H]1C(=O)N[C@@H](CCCNC(=N)N)C(=O)N1CCC[C@H]1C(=O)N1CCC[C@H]1C(=O)N[C@@H](CCCNC(=N)N)C(=O)N1CCC[C@H]1C(=O)N[C@@H](CCCNC(=N)N)C(=O)N1CCC[C@H]1C(=O)N[C@@H](CC(C)C)C(=O)N[C@@H](Cc1ccc(O)cc1)C(=O)N1CCC[C@H]1C(=O)N1CCC[C@H]1C(=O)N[C@@H](CCCCN)C(=O)N[C@@H](CC(=O)O)C(=O)N[C@H](C(N)=O)C(C)C [SEQ ID NO. 114] (H-[Orn]NYI[Hyp]RPPRPRPLYPPKDV-NH2),MIC E. coli DSM 10233,[1],1 to 4 µg/mL
CC[C@H](C)[C@H](NC(=O)[C@H](CCCN)NC(=O)[C@H](CCCNC(=N)N)NC(=O)[C@@H]1C[C@@H](O)CN1C(=O)[C@@H]1CCCN1C(=O)[C@H](CCCNC(=N)N)NC(=O)[C@@H]1CCCN1C(=O)[C@H](CCCNC(=N)N)NC(=O)[C@@H]1CCCN1C(=O)[C@H](CC(C)C)NC(=O)[C@H](Cc1ccc(O)cc1)NC(=O)[C@@H]1CCCN1C(=O)[C@@H]1CCCN1C(=O)[C@H](CCCCN)NC(=O)[C@H](CC(=O)O)NC(=O)[C@@H](N)C(C)C)C(=O)N[C@@H](Cc1ccc(O)cc1)C(=O)N[C@@H](CC(N)=O)C(=O)N[C@@H](CCCN)C(N)=O [SEQ ID NO. 107] (H-VDKPPYLPRPRP[Hyp]R[Orn]IYN[Orn]-NH2),half-life,[2],215 min
"CC[C@H](C)[C@H](NC(=O)[C@H](Cc1ccc(O)cc1)NC(=O)[C@H](CC(N)=O)NC(=O)[C@@H](N)CCCN)C(=O)N[C@@H](CCCN)C(=O)N[C@@H](CCCNC(=N)N)C(=O)N1CCC[C@H]1C(=O)N1CCC[C@H]1C(=O)N[C@@H](CCCNC(=N)N)C(=O)N1CCC[C@H]1C(=O)N[C@@H](CCCNC(=N)N)C(=O)N1CCC[C@H]1C(=O)N[C@@H](CC(C)C)C(=O)N[C@@H](Cc1ccc(O)cc1)C(=O)N1CCC[C@H]1C(=O)N1CCC[C@H]1C(=O)N[C@@H](CCCCN)C(=O)N[C@@H](CC(=O)O)C(=O)N[C@H](C(N)=O)C(C)C [SEQ ID NO. 113, ONYIORPPRPRPLYPPKDV-NH2] (H-[Orn]NYI[Orn]RPPRPRPLYPPKDV-NH2)",MIC E. coli DSM 10233,[1],1 to 4 µg/mL
"CC(C)C[C@H](NC(=O)[C@H](Cc1ccc(O)cc1)NC(=O)[C@@H]1CCCN1C(=O)[C@@H]1CCCN1C(=O)[C@H](CCCCN)NC(=O)[C@H](CC(=O)O)NC(=O)[C@@H](N)C(C)C)C(=O)N1CCC[C@H]1C(=O)N[C@@H](CCCNC(=N)N)C(=O)N1CCC[C@H]1C(=O)N[C@@H](CCCNC(=N)N)C(=O)N1CCC[C@H]1C(=O)N1CCC[C@H]1C(=O)N[C@@H](CCCNC(=N)N)C(=O)N[C@@H](CCCN)C(=O)N[C@H](C(=O)N[C@@H](Cc1ccc(O)cc1)C(=O)N[C@@H](CC(N)=O)C(=O)N[C@@H](CCCN)C(N)=O)C(C)(C)C [SEQ ID NO. 109, VDKPPYLPRPRPPRO-Tle-YNO-NH2] (H-VDKPPYLPRPRPPR[Orn][Tle]YN[Orn]-NH2)",half-life,[2],> 240 min
CC[C@H](C)[C@H](NC(=O)[C@@H]1C[C@@H](O)CN1C(=O)[C@H](CCCNC(=N)N)NC(=O)[C@@H]1CCCN1C(=O)[C@@H]1CCCN1C(=O)[C@H](CCCNC(=N)N)NC(=O)[C@@H]1CCCN1C(=O)[C@H](CCCNC(=N)N)NC(=O)[C@@H]1CCCN1C(=O)[C@H](CC(C)C)NC(=O)[C@H](Cc1ccc(O)cc1)NC(=O)[C@@H]1CCCN1C(=O)[C@@H]1CCCN1C(=O)[C@H](CCCCN)NC(=O)[C@H](CC(=O)O)NC(=O)[C@@H](N)C(C)C)C(=O)N[C@@H](Cc1ccc(O)cc1)C(=O)N[C@@H](CC(N)=O)C(=O)N[C@@H](CCCN)C(N)=O [SEQ ID NO. 63] (H-VDKPPYLPRPRPPR[Hyp]IYN[Orn]-NH2),MIC values against E. coli,E. coli BL21 A1,4 µg/mL
same,MIC E. coli BL21 A1,"E. coli BL21 A1; 1% TSB, 20 h at 37° C.",4 µg/mL
same,MIC E. coli DSM 10233,[1],1 to 4 µg/mL
same,MIC M. luteus 10240,M. luteus 10240,8 µg/mL
same,half-life,"[3]; Half-life in 25% mouse serum, 25% aqueous mouse serum, 37° C., 75 μg/mL peptide",> 360 min
same,half-life,"[3]; half-life in 25% aqueous mouse serum, 25% serum",> 360 min
CC[C@H](C)[C@H](NC(=O)[C@H](CCCNC(=N)N)NC(=O)[C@H](CCCNC(=N)N)NC(=O)[C@@H]1CCCN1C(=O)[C@@H]1CCCN1C(=O)[C@H](CCCNC(=N)N)NC(=O)[C@@H]1CCCN1C(=O)[C@H](CCCNC(=N)N)NC(=O)[C@@H]1C[C@@H](O)CN1C(=O)[C@H](CC(C)C)NC(=O)[C@H](Cc1ccc(O)cc1)NC(=O)[C@@H]1CCCN1C(=O)[C@@H]1CCCN1C(=O)[C@H](CCCCN)NC(=O)[C@H](CC(=O)O)NC(=O)[C@@H](N)C(C)C)C(=O)N[C@@H](Cc1ccc(O)cc1)C(=O)N[C@@H](CC(N)=O)C(=O)N[C@@H](CCCNC(=N)N)C(=O)O [compound 21] (H-VDKPPYL[Hyp]RPRPPRRIYNR-OH),MIC E. coli SEQ 102ATCC # BAA-4 57,E. coli ATCC BAA-457,64 µg/mL
same,MIC E. coli 045-849 SENTRY,E. coli 045-849 SENTRY,16 µg/mL
same,MIC K. pneumoniae K6 ATCC 700603,[4],64 µg/mL
same,MIC K. pneumoniae 012-3131,K. pneumoniae 012-3131,32 µg/mL
same,MIC E. coli D31 J. Wilson,E. coli D31 J. Wilson,32 µg/mL
same,MIC K. pneumoniae ATCC 27799,K. pneumoniae ATCC 27799,128 µg/mL
same,MIC E. coli BL21 A1,"E. coli BL21 A1; BL21, 20 h",16 µg/mL
same,MIC M. luteus 10240,M. luteus 10240,16 µg/mL
CC[C@H](C)[C@H](NC(=O)[C@H](CCCNC(=N)N)NC(=O)[C@H](CCCNC(=N)N)NC(=O)[C@@H]1CCCN1C(=O)[C@@H]1CCCN1C(=O)[C@H](CCCNC(=N)N)NC(=O)[C@@H]1CCCN1C(=O)[C@H](CCCNC(=N)N)NC(=O)[C@@H]1CCCN1C(=O)[C@H](CC(C)C)NC(=O)[C@H](Cc1ccc(O)cc1)NC(=O)[C@@H]1CCCN1C(=O)[C@@H]1C[C@@H](O)CN1C(=O)[C@H](CCCCN)NC(=O)[C@H](CC(=O)O)NC(=O)[C@@H](N)C(C)C)C(=O)N[C@@H](Cc1ccc(O)cc1)C(=O)N[C@@H](CC(N)=O)C(=O)N[C@@H](CCCNC(=N)N)C(=O)O [compound 23] (H-VDK[Hyp]PYLPRPRPPRRIYNR-OH),MIC E. coli SEQ 102ATCC # BAA-4 57,E. coli ATCC BAA-457,32 µg/mL
same,MIC E. coli 045-849 SENTRY,E. coli 045-849 SENTRY,8 µg/mL
same,MIC K. pneumoniae K6 ATCC 700603,[4],32 µg/mL
same,MIC K. pneumoniae 012-3131,K. pneumoniae 012-3131,16 µg/mL
same,MIC E. coli D31 J. Wilson,E. coli D31 J. Wilson,8 µg/mL
same,MIC K. pneumoniae ATCC 27799,K. pneumoniae ATCC 27799,64 µg/mL
same,MIC E. coli BL21 A1,"E. coli BL21 A1; BL21, 20 h",8 µg/mL
same,MIC M. luteus 10240,M. luteus 10240,16 µg/mL
